Values joined by “and” are separate entries in the source; they are usually repeats but may differ in a detail not shown here. Identical values can stand only once.
Assays:
Format in all cases: cell-based
hGABAA α1β3γ2 [1] = target: T1, hGABAA α1β3γ2 (Homo sapiens, UniProt P14867+P18507+P28472); assay: hGABAA IonFlux HT PAM Assay, α1β3γ2; settings: for Mean Maximal Effect (% of Control): normalized to baseline peak current induced by EC20 GABA (1 μM) for 2 seconds
Excerpt: (§1) Ligand-gated ion channels targeted were hGABAA α1β3γ2 and hGABAA α2β3γ2.
(§2) Electrophysiological assays conducted to profile nine (9) compounds for activities on the on channel targets listed above for Positive Allosteric Modulator (PAM) activities using the IonFlux HT electrophysiological platform.
The parameters measured are described in the Data Analysis section.
(§3) All wells included a final DMSO concentration of 0.33% including all control wells.
(§4) All recordings were obtained from a holding potential of −60 mV. The compound addition sequence that was used for all additions was the same for all assays. […] The process was repeated with the next ascending concentration of test compound (FIG. 1).
(§5) All data were first exported to an Excel compatible data file and then analyzed using Graph Pad Prism software.

hGABAA α2β3γ2 = hGABAA α2β3γ2 (Homo sapiens, UniProt P18507+P28472+P47869); assay: hGABAA IonFlux HT PAM Assay, α2β3γ2; settings: for Mean Maximal Effect (% of Control): normalized to baseline peak current induced by EC20 GABA (0.8 μM) for 2 seconds
Excerpt: as §1, §2
The parameters measured are described in the Data Analysis section. […] Open circles represent data that has been excluded from the curve fitting. Where no curve fit was possible, n/c (not calculable) is listed.
as §3, §4, §5

hGABAA α1β3γ2 [2] = target: T1, hGABAA α1β3γ2; assay: hGABAA α1β3γ2 IonFlux HT Agonist Assay; parameters: activation of hGABAA α1β3γ2 ion channel currents / activation: dose or concentration left out as unconfirmed
Description: Ligand-gated ion channel targets were hGABAA α2β3γ2 and hGABAA α1β3γ2. Electrophysiological assays conducted to profile two compounds for agonist activities on hGABAA α2β3γ2 and seven compounds for agonist activities on hGABAA α1β3γ2 using the IonFlux HT electrophysiological platform.
The parameters measured are described in the Data Analysis section. […] Note: The test compounds was applied over two (2) ‘experimental patterns’ in increasing concentrations.
The supplied compound was prepared in DMSO to concentrations that were 300× the final assay concentrations. Aliquots were taken out and diluted 300× into external buffer to give the final assay concentration. At wells included a final DMSO concentration of 0.33% including all control wets.
All recordings were obtained from a holding potential of −60 mV. The compound addition sequence that was used for all additions was the same for all assays. […] Each test concentration of compound was applied for 2 seconds followed by 60 seconds wash. The process was repeated with the next ascending concentration of test compound. The test compounds were applied over two (2) ‘experimental patterns’ in increasing concentrations (FIG. 11).
AM data were first exported to an Excel compatible data file and then analyzed using Graph Pad Prism software.

[3] = Estimated EC50, positive modulation of EC20 GABA current
[4] = read-out: Normalized Percentage Activation Mean

hGABAA α2β3γ2, sequence (P47869 29-451): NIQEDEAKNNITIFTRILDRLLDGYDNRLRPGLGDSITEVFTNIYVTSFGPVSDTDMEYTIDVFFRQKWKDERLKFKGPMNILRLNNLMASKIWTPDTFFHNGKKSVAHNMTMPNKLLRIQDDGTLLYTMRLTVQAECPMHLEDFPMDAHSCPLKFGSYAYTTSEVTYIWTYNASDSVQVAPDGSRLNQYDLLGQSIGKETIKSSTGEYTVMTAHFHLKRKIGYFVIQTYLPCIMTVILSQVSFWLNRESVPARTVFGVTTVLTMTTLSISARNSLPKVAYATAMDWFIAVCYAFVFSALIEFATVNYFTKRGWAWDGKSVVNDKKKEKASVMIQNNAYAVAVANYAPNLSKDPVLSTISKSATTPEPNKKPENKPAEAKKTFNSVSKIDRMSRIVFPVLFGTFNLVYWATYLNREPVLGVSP
hGABAA α2β3γ2, sequence (P28472 26-473): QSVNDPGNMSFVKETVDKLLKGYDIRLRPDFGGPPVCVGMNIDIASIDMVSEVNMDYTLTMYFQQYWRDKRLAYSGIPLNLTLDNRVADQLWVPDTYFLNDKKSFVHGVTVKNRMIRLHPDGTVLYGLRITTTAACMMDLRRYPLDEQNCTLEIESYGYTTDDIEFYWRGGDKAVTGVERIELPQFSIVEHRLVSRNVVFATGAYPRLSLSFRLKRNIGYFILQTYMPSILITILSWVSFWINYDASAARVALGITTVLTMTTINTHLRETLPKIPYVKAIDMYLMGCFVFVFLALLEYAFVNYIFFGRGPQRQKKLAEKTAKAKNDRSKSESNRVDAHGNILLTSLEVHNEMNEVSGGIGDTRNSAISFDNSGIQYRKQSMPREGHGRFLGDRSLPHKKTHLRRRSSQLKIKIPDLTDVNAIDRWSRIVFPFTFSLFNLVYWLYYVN
hGABAA α2β3γ2, sequence (P18507 40-475): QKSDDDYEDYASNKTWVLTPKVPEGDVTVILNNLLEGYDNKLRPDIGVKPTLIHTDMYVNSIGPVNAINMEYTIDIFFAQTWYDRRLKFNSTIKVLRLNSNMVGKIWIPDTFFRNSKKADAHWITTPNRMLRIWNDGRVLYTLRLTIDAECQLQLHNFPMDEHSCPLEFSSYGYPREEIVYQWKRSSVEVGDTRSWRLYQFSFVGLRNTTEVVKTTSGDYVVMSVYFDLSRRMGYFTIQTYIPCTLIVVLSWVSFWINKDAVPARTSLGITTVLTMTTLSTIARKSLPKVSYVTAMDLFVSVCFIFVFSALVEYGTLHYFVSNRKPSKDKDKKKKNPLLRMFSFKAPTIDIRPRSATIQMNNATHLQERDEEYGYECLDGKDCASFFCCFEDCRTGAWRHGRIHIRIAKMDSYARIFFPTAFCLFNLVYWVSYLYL
T1 sequence (P14867 28-456): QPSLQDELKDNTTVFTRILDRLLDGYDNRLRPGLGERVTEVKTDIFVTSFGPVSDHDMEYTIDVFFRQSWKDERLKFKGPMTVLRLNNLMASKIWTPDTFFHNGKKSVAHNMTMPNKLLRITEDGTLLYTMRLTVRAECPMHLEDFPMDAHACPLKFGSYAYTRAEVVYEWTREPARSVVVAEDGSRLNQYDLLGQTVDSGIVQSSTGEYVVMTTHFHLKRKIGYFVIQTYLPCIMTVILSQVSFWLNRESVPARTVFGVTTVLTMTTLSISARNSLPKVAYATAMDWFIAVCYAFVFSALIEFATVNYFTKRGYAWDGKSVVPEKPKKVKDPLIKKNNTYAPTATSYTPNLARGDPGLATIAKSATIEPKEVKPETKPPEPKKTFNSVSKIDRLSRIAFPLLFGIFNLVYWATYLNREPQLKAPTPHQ
T1 sequence (P28472 26-473): as the sequence (P28472 26-473) above
T1 sequence (P18507 40-475): as the sequence (P18507 40-475) above

In the case of CCN(CCN(C)C)C(=O)OC1c2nccnc2C(=O)N1c1ccc(Cl)cn1 (stereo not shown) [Compound 4], the EC50 (hGABAA α1β3γ2 [1]; [3]) is reported as 2.47 µM, the “Mean Maximal Effect (% of Control)” value (hGABAA α1β3γ2 [1]) is reported as 170 % of Control and the EC50 (hGABAA α2β3γ2; [3]) is reported as 5.8 µM. The “Mean Maximal Effect (% of Control)” value (hGABAA α2β3γ2) was 126 % of Control, the EC50 (hGABAA α1β3γ2 [2]) was greater than 1000 µM and the “activation of hGABAA α1β3γ2 ion channel currents” value (hGABAA α1β3γ2 [2]) was “did not activate”. It also gave an activation (hGABAA α1β3γ2 [2]; [4]) of 4.45%, an activation at 0.3 µM (hGABAA α1β3γ2 [2]; [4]) of 5.26% and an activation at 1 µM (hGABAA α1β3γ2 [2]; [4]) of 5.13%. It also gave an activation at 3 µM (hGABAA α1β3γ2 [2]; [4]) of 5.89%, an activation at 10 µM (hGABAA α1β3γ2 [2]; [4]) of 5.68% and an activation at 30 µM (hGABAA α1β3γ2 [2]; [4]) of 6.45%. The activation at 100 µM (hGABAA α1β3γ2 [2]; [4]) was 5.97% and the activation at 300 µM (hGABAA α1β3γ2 [2]; [4]) was 5.85%.
With CN1C(=O)CN=C(c2ccccc2)c2cc(Cl)ccc21 [Diazepam] the “(%) Control mean” value (hGABAA α1β3γ2 [1]; 0.003 μM + EC20 GABA) was 124.0 % Control and 122.6 % Control and 125.3 % Control, the “(%) Control n1” value (hGABAA α1β3γ2 [1]; 0.003 μM + EC20 GABA) was 123.6 % Control and 125.3 % Control and 121.6 % Control and the “(%) Control n2” value (hGABAA α1β3γ2 [1]; 0.003 μM + EC20 GABA) was 124.3 % Control and 119.9 % Control and 129.0 % Control. The “(%) Control mean” value (hGABAA α1β3γ2 [1]; 0.01 μM + EC20 GABA) was 148.4 % Control and 139.6 % Control and 149.7 % Control, the “(%) Control n1” value (hGABAA α1β3γ2 [1]; 0.01 μM + EC20 GABA) was 149.5 % Control and 141.4 % Control and 137.2 % Control and the “(%) Control n2” value (hGABAA α1β3γ2 [1]; 0.01 μM + EC20 GABA) was 147.2 % Control and 137.8 % Control and 162.2 % Control. The “(%) Control mean” value (hGABAA α1β3γ2 [1]; 0.03 μM + EC20 GABA) was 186.5 % Control and 171.8 % Control and 193.2 % Control, the “(%) Control n1” value (hGABAA α1β3γ2 [1]; 0.03 μM + EC20 GABA) was 182.7 % Control and 182.4 % Control and 169.0 % Control and the “(%) Control n2” value (hGABAA α1β3γ2 [1]; 0.03 μM + EC20 GABA) was 190.3 % Control and 161.2 % Control and 217.4 % Control. The “(%) Control mean” value (hGABAA α1β3γ2 [1]; 0.1 μM + EC20 GABA) was 250.0 % Control and 234.6 % Control and 223.1 % Control, the “(%) Control n1” value (hGABAA α1β3γ2 [1]; 0.1 μM + EC20 GABA) was 230.0 % Control and 227.4 % Control and 232.1 % Control and the “(%) Control n2” value (hGABAA α1β3γ2 [1]; 0.1 μM + EC20 GABA) was 269.9 % Control and 241.8 % Control and 214.1 % Control. The “(%) Control mean” value (hGABAA α1β3γ2 [1]; 0.3 μM + EC20 GABA) was 298.9 % Control and 284.3 % Control and 269.3 % Control, the “(%) Control n1” value (hGABAA α1β3γ2 [1]; 0.3 μM + EC20 GABA) was 265.9 % Control and 275.1 % Control and 262.8 % Control and the “(%) Control n2” value (hGABAA α1β3γ2 [1]; 0.3 μM + EC20 GABA) was 331.8 % Control and 293.6 % Control and 275.8 % Control. The “(%) Control mean” value (hGABAA α1β3γ2 [1]; 1 μM + EC20 GABA) was 317.0 % Control and 310.4 % Control and 314.3 % Control, the “(%) Control n1” value (hGABAA α1β3γ2 [1]; 1 μM + EC20 GABA) was 284.9 % Control and 296.1 % Control and 284.8 % Control and the “(%) Control n2” value (hGABAA α1β3γ2 [1]; 1 μM + EC20 GABA) was 349.1 % Control and 324.7 % Control and 343.8 % Control. For the same compound, the “Mean Maximal Effect (% of Control)” value (hGABAA α1β3γ2 [1]) was 317 % of Control and 310 % of Control and 314 % of Control, the “(%) Control mean” value (hGABAA α2β3γ2; 0.003 μM + EC20 GABA) was 116.0 % Control and 114.8 % Control and 100.4 % Control and the “(%) Control n1” value (hGABAA α2β3γ2; 0.003 μM + EC20 GABA) was 113.8 % Control and 112.4 % Control and 113.2 % Control. For the same compound, the “(%) Control n2” value (hGABAA α2β3γ2; 0.003 μM + EC20 GABA) was 118.1 % Control and 117.2 % Control and 87.7 % Control, the “(%) Control mean” value (hGABAA α2β3γ2; 0.01 μM + EC20 GABA) was 135.3 % Control and 124.0 % Control and 118.1 % Control and the “(%) Control n1” value (hGABAA α2β3γ2; 0.01 μM + EC20 GABA) was 131.2 % Control and 123.3 % Control and 122.4 % Control. For the same compound, the “(%) Control n2” value (hGABAA α2β3γ2; 0.01 μM + EC20 GABA) was 139.3 % Control and 124.7 % Control and 113.8 % Control, the “(%) Control mean” value (hGABAA α2β3γ2; 0.03 μM + EC20 GABA) was 162.5 % Control and 158.2 % Control and 142.3 % Control and the “(%) Control n1” value (hGABAA α2β3γ2; 0.03 μM + EC20 GABA) was 155.2 % Control and 156.2 % Control and 150.5 % Control. The “(%) Control n2” value (hGABAA α2β3γ2; 0.03 μM + EC20 GABA) was 169.9 % Control and 160.3 % Control and 134.2 % Control, the “(%) Control mean” value (hGABAA α2β3γ2; 0.1 μM + EC20 GABA) was 252.4 % Control and 255.8 % Control and 206.0 % Control and the “(%) Control n1” value (hGABAA α2β3γ2; 0.1 μM + EC20 GABA) was 261.1 % Control and 261.6 % Control and 216.8 % Control. The “(%) Control n2” value (hGABAA α2β3γ2; 0.1 μM + EC20 GABA) was 243.8 % Control and 249.9 % Control and 195.1 % Control, the “(%) Control mean” value (hGABAA α2β3γ2; 0.3 μM + EC20 GABA) was 253.5 % Control and 261.6 % Control and 214.1 % Control and the “(%) Control n1” value (hGABAA α2β3γ2; 0.3 μM + EC20 GABA) was 267.8 % Control and 260.9 % Control and 230.4 % Control. For the same compound, the “(%) Control n2” value (hGABAA α2β3γ2; 0.3 μM + EC20 GABA) was 239.3 % Control and 262.3 % Control and 197.8 % Control, the “(%) Control mean” value (hGABAA α2β3γ2; 1 μM + EC20 GABA) was 262.3 % Control and 269.3 % Control and 224.3 % Control and the “(%) Control n1” value (hGABAA α2β3γ2; 1 μM + EC20 GABA) was 274.0 % Control and 285.9 % Control and 235.0 % Control. For the same compound, the “(%) Control n2” value (hGABAA α2β3γ2; 1 μM + EC20 GABA) was 250.6 % Control and 252.8 % Control and 213.6 % Control and the “Mean Maximal Effect (% of Control)” value (hGABAA α2β3γ2) was 262 % of Control and 269 % of Control and 224 % of Control.

Reference: patent US12084451B2, “Compositions and methods for reducing tactile dysfunction, anxiety, and social impairment” (President and Fellows of Harvard College, priority 2018, dated 2024)
